Experimental data from US8466186B2, “Compounds” (Boehringer Ingelheim International GmbH, priority 2010, dated 2013).

What follows are compounds tested against T1, recombinant human mPGES-1 (Homo sapiens, UniProt O14684) (assay: Assay A: mPGES-1 enzyme assay (HTRF detection of PGE2)). Details: biological assay A; microsomes from E. coli expressing recombinant human mPGES-1; read-out: mPGES-1 inhibitory effect IC50.
T1 construct: made in house; host or cells: Rosetta E. coli (membrane/microsome fraction)
T1 sequence (O14684 1-152): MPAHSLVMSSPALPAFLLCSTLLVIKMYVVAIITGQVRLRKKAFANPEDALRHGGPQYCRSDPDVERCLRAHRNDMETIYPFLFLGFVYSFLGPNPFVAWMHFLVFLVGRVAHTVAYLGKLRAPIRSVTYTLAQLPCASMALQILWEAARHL
Assay type: biochemical
Description: The aim of this assay is to determine the affinity of a test compound for the mPGES-1 enzyme.
• 1. Riendeau, D., R. Aspiotis, D. Ethier, Y. Gareau, E. Grimm, J. Guay, S. Guiral, H. Juteau, J. Mancini, N. Methot, J. Rubin, and R. Friesen, Inhibitors of the inducible microsomal prostaglandin E2 synthase (mPGES-1) derived from MK-886. Bioorg Med Chem Lett, 2005. 15(14): p. 3352-3355. • 2. Cote, B., L. Boulet, C. Brideau, D. Claveau, D. Ethier, R. Frenette, M. Gagnon, A. Giroux, J. Guay, S. Guiral, J. Mancini, E. Martins, F. Masse, N. Methot, D. Riendeau, J. Rubin, D. Xu, H. Yu, Y. Ducharme, and R. Friesen, Substituted phenanthrene imidazoles as potent, selective, and orally active mPGES-1 inhibitors. Bioorg Med Chem Lett, 2007. 17(24): p. 6816-6820. Assay A: mPGES-1 Enzyme Assay List of Reagents Used: • Glutathione (Sigma, G-4251) • Freeze culture in Rosetta E coli expression strain. • LB growth media with Ampillicillin (Amp) final concentration in culture 50 μg/mL • Chloroamphenicol stock 34 mg/mL (chloro) final concentration in culture 34 μg/mL • Sterile growth flasks for 500 mL-1 liter cultures • 0.1 M KP, buffer pH 7.4 • 9.25% HCl • PGH2 (0.25 mM) • Fe (II) Cl2 tetrahydrate, 99% (Sigma, 220229) • 384-well plate with compounds • 96-well plate, polypropylene (Thermo fast 96 skirted VWR) • 384-well plate polypropylene PCR plate (Greiner 785201) • Greiner 384-well plate pp (In vitro cat. no. 781280) • Adhesive sealing film for 96-well plates (Sigma-Aldrich) • Aluminium foil (PCR foil, 310-0030-127-471 from Labora) • PBS (GIBCO 14040) • Prostaglandin E2 Assay (Cisbio, cat. no. 62P2APEC) • Biomek FX robot (Beckman Coulter) • Biomek NX robot (Beckman Coulter) • Multidrop; micro or combi (ThermoLabsystems) • Plate reader: Safire2 (Tecan)
Microsomes from Rosetta E. coli bacteria expressing recombinant human mPGES-1 can be derived as described below:
Inoculate 5 mL LB with Amp and Chloro with bacteria from freeze culture. Incubate overnight at 37° C. with 200 rpm. Thereafter, inoculate 500-800 mL LB containing Amp and Chloro with the 5 mL on culture and grow to OD640 of 0.6-0.8. Chill the culture to +4° C. before induction. Induce the culture with IPTG at a final concentration of 400 μM. Express the protein at room temp 18-23° C. with 200 rpm shaking overnight.
The following steps can be performed on the following day: • 1. Spin down the cells in 250 mL centrifuge flasks for 15 min at 7000 rpm • 2. Dissolve the pellet from 250 mL culture in 12.5 mL homogenization buffer • 3. Disintegrate the cells by sonication, 4×10 seconds at 35% amplitude • 4. Add 2.5 mL MgCl2 (100 mM) and DNase 12.5 μL (0.8 mg/mL) and incubate on ice for 30 min • 5. Spin down the bacteria debris and save the supernatant, 7000 rpm for 15 min • 6. Isolate the protein containing membranes in the supernatant by ultracentrifugation 45000×g for 1 hour. • 7. Discard the supernatant and dissolve the pellet in 20 mM KPi buffer and aliquot the enzyme and store aliquots at −80° C.
Before each experiment is performed an aliquot of the enzyme is thawed and it can then be dissolved in 0.1 M KP, pH 7.4 buffer containing 2.5 mM GSH. 50 μL of this enzyme solution is subsequently dispensed in a 384-well plate at room temperature. 0.5 μL of the inhibitor dissolved in DMSO is thereafter added to each well and incubated for 25 minutes at room temperature. Subsequently, 2 μL of PGH2 dissolved in an appropriate solvent is added to each well and after one minute at room temperature, the acidified stop solution containing FeCl2 is added. 4 μL of the total volume is transferred to a separate plate and diluted 750-fold in two separate steps before quantification of PGE2.
In order to quantitate the amount of PGE2 that has been formed, a homogenous time resolved fluorescent (HTRF) detection of PGE2 can be performed by the use of a commercially available kit from CisBio essentially according to the manufacturer's protocol. […]

| IC50 | SMILES |
| --- | --- |
| 19 nM | Cn1c(Nc2cc(CNC(=O)C3(C(F)(F)F)CC3)ccc2F)nc2cc(Cl)c(N3CCC(C(F)(F)F)CC3)cc21 [Example 111, N-{4-Fluoro-3-[5-chloro-1-methyl-6-(4-trifluoromethyl-piperidin-1-yl)-1H-benzimidazol-2-ylamino]-benzyl}-1-trifluoromethyl-cyclopropanamide] |
| 7.7 nM | Cn1c(Nc2cc(CNS(=O)(=O)C(C)(C)C)ccc2Cl)nc2cc(Cl)c(N3CCN(c4ccc(C(F)(F)F)cc4)CC3)cc21 [Example 100] |
| 172 nM | O=C(NCc1ccc(Cl)c(Nc2nc3cc(Cl)c(N4CCOCC4)cc3[nH]2)c1)C1(C(F)(F)F)CC1 [Example 128] |
| 52 nM | CC1CCCCC1C(=O)NCc1ccc(Cl)c(Nc2nc3cc(N4CCCC4)ccc3[nH]2)c1 (stereo not shown) [Example 19] |
| 6.7 nM | COCCn1c(Nc2cc(CNC(=O)C3(C(F)(F)F)CC3)ccc2Cl)nc2cc(Cl)c(N3CCC(C(F)(F)F)CC3)cc21 [Example 81] |
| 3.9 nM | CC(C(=O)NCc1ccc(C(F)(F)F)c(Nc2nc3cc(Cl)c(N4CCC(C(F)(F)F)CC4)cc3n2C)c1)C(F)(F)F (stereo not shown) [Example 105, N-{4-Trifluoromethyl-3-[5-chloro-1-methyl-6-(4-trifluoromethyl-piperidin-1-yl)-1H-benzimidazol-2-ylamino]-benzyl}-3,3,3-trifluoro-2-methyl-propanamide] |
| 2.6 nM | CC(C(=O)NCc1ccc(Cl)c(Nc2nc3cc(Cl)c(N4CCCC(C(F)(F)F)C4)cc3n2C)c1)C(F)(F)F (stereo not shown) [Example 13] |
| 2.5 nM | Cn1c(Nc2cc(CNC(=O)C(C)(N)C(F)(F)F)ccc2Cl)nc2cc(Cl)c(N3CCCC(C(F)(F)F)C3)cc21 (stereo not shown) [Example 1, 2-Amino-N-{4-chloro-3-[5-chloro-1-methyl-6-(3-(trifluoromethyl)piperidin-1-yl)-1H-benzo[d]imidazol-2-ylamino]benzyl}-3,3,3-trifluoro-2-methylpropanamide] |
| 140 nM | CN1CCN(c2cc3c(cc2Cl)nc(Nc2cc(CNC(=O)C4(C(F)(F)F)CC4)ccc2Cl)n3C)CC1 [Example 11, N-{4-Chloro-3-[5-chloro-1-methyl-6-(4-methyl-piperazin-1-yl)-1H-benzimidazol-2-ylamino]-benzyl}-1-trifluoromethyl-cyclopropanecarboxamide] |
| 3 nM | Cn1c(Nc2cc(CNC(=O)C(C)(F)F)ccc2Cl)nc2cc(Cl)c(N3CCCC(C(F)(F)F)C3)cc21 (stereo not shown) [Example 15] |
| 5.9 nM | Cn1c(Nc2cc(CNC(=O)C3(C(F)(F)F)CC3)cc(F)c2Cl)nc2cc(Cl)c(N3CCC(C(F)(F)F)CC3)cc21 [Example 116, N-{4-Chloro-5-fluoro-3-[5-chloro-1-methyl-6-(4-trifluoromethyl-piperidin-1-yl)-1H-benzimidazol-2-ylamino]-benzyl}-1-trifluoromethyl-cyclopropanamide] |
| 2.4 nM | Cn1c(Nc2cc(CNC(=O)C3CC3)ccc2C(F)(F)F)nc2cc(Cl)c(N3CCC(C(F)(F)F)CC3)cc21 [Example 102] |
| 5.3 nM | O=C(NCc1ccc(Cl)c(Nc2nc3cc(Cl)c(N4CCC(C(F)(F)F)CC4)cc3n2CC2CC2)c1)C1(C(F)(F)F)CC1 [Example 88] |
| 300 nM | O=S(=O)(NCc1ccc(Cl)c(Nc2nc3ccc(N4CCCC4)cc3[nH]2)c1)C1CC1 [Example 30, N-{4-Chloro-3-[5-(pyrrolidin-1-yl)-1H-benzimidazol-2-ylamino]-benzyl}cyclopropylsulfonamide] |
| 143 nM | O=C(NCc1ccc(Cl)c(Nc2nc3cc(Cl)c(N4CCC[C@@H]4CO)cc3[nH]2)c1)C1(C(F)(F)F)CC1 [Example 9, (R)—N-{4-Chloro-3-[5-chloro-6-(2-hydroxymethyl-pyrrolidin-1-yl)-1H-benzimidazol-2-ylamino]-benzyl}-1-trifluoromethyl-cyclopropanecarboxamide] |
| 8.7 nM | O=C(NCc1ccc(Cl)c(Nc2nc3cc(Cl)c(N4CCC(C(F)(F)F)CC4)cc3[nH]2)c1)C1(C(F)(F)F)CC1 [Example 75] |
